Columns and labels:
[1] = system: P. falciparum 3D7 asexual blood stages; assay: Whole-cell time extended asexual growth assay (pLDH); assay type: cell-based; conditions: Plasmodium falciparum, 72 h; for IC50: dose response retest, read-out: IC50 (µM) Asex stages; for inhibition at 2 µM: primary screen, read-out: %Inh Asex stages @2uM
Description: Asexual activity was assayed via Plasmodium lactate dehydrogenase activity (pLDH), a surrogate of asexual parasite growth. […] 2 µM artesunate and DMSO were used as the positive and negative controls, respectively. […] After plate mixing, NBT reduction was measured by absorbance at 650 nm using Envision (Perkin Elmer).

HepG2 human cells = system: HepG2 human cells; design: method as in http://dx.doi.org/10.6019/CHEMBL3507680; conditions: ref http://dx.doi.org/10.6019/CHEMBL3507680; cited from earlier work

Row | Structure (SMILES) | IC50 [1] [µM] | inhibition at 2 µM [1] [%] | %Inh HepG2 @10uM (HepG2 human cells) [%]
1 | CC(C)Nc1cc(-c2c[nH]nc2C2CCN(C(=O)C3CC3)C2)ccn1 (stereo not drawn) [DDD01057305] | 5.06 | 30.6 | 96.71
2 | CC(C)CNc1cc(-c2c[nH]nc2C2CCN(C(=O)C3CC3)C2)ccn1 (stereo not drawn) [DDD01057306] | 3.78 | 35.1 | 95.13
3 | COCC(=O)N1CCCC(c2nc(N(C)C)ncc2-c2ccccc2)C1 (stereo not drawn) [DDD01057962] | 5.84 | 42.5 | 4.41
4 | COc1ccc(F)c(CN(CCCn2ccnc2)Cc2ccc(C)s2)c1.O=C(O)CC(O)(CC(=O)O)C(=O)O [DDD01059675] | 8.49 | 33.8 | 45.48
5 | COc1cc2nc(NCc3ccc(C)nc3)nc(N)c2cc1OC [DDD01069328] | 2.24 | 58 | -5.25
6 | CN(C)c1ccnc(N2CCC(NCCOc3ccccc3)CC2)n1 [DDD01072965] | 7.83 | 30.8 | 19.60
7 | COc1cccc(CNc2cc(C)nc(-c3ccncc3)n2)c1OC [DDD01073393] | 4.85 | 40.5 | -6.44
8 | CC1CCN(c2ccnc3ccc(Br)cc23)CC1 [DDD01075547] | 9.1 | 35.9 | 2.00
9 | Cc1cnc(NCc2ccc(S(=O)(=O)N(C)C(C)C)cc2)nc1C [DDD01077176] | 3.18 | 42.2 | -11.10
10 | N#Cc1c(Cl)nsc1NCCCN1C(=O)COc2ccccc21 [DDD01077687] | 3.47 | 39.1 | 8.75
11 | COc1ccc(Oc2cc(CN)ccn2)cc1 [DDD01078308] | 6.7 | 30.1 | 2.32
12 | Cc1cc(=O)n2nc(Oc3ccc(Cl)c(C)c3)sc2n1 [DDD01078480] | 3.34 | 42 | -6.83
13 | COc1c(C)cnc(CN(C)C2CCCCC2)c1C [DDD01078822] | 5.74 | 35.1 | 8.25
14 | CCS(=O)(=O)N1CCC2(CC1)CN(CC1CCOC1)c1ccccc12.O=C(O)C(F)(F)F (stereo not drawn) [DDD01082339] | 7.55 | 46 | 25.95
15 | O=C(O)C(F)(F)F.c1ccc(CN2CCC3(CC2)CC(Nc2nccs2)CO3)nc1 (stereo not drawn) [DDD01083119] | 7.18 | 37.5 | -8.19
16 | CC(C)N(C)Cc1cnc2n1CCN(C(=O)NC1CCCC1)C2.O=C(O)C(F)(F)F [DDD01085014] | 4.32 | 42.5 | -9.47
17 | COc1ccc2[nH]cc(-c3ccnc(NC4CCCC4)n3)c2c1 [DDD01235847] | 3.02 | 33.7 | -0.78
18 | COc1cccc(CN2CC(=O)N(c3ccccc3C)CC2C)c1OC (stereo not drawn) [DDD01244654] | 3.87 | 51.8 | -6.78
19 | NCC1Cc2cc(-c3nccc(N4CCC(O)CC4)n3)cc(Cl)c2O1 (stereo not drawn) [DDD01245918] | 4.85 | 72.6 | 5.41
20 | O=C(O)C1CC2(CCN(c3nccc4ccccc34)CC2)CN1 (stereo not drawn) [DDD01246093] | 3.51 | 35.8 | 9.49
21 | CCn1cc(CN2CCN(Cc3cc(C)cc(C)c3)C(=O)C2)cc1C#N [DDD01246382] | 3.31 | 37.3 | 15.63
22 | CCCn1ncc(-c2ccnc(NC3CC(C)(C)NC(C)(C)C3)n2)c1C [DDD01246448] | 4.53 | 41.5 | 80.08
23 | CC1(c2ccccc2)CCCN(Cc2cncn2C2CCCC2)C1 (stereo not drawn) [DDD01246491] | 2.95 | 39.7 | -13.60
24 | N#Cc1cccc(N2CCCC(CO)(CCOc3ccccc3)C2)n1 (stereo not drawn) [DDD01247086] | 8.09 | 32 | 8.55

The remaining compounds from weak to strong by IC50 [1], led by results:

Row | IC50 [1] [µM] | Structure (SMILES) | inhibition at 2 µM [1] [%] | %Inh HepG2 @10uM (HepG2 human cells) [%]
25 | 2.95 | CCN1c2ccc(-c3cncn3CC(=O)NC(C)(C)C)cc2CC1C.Cl (stereo not drawn) [DDD01059258] | 82.1 | -7.81
26 | 2.68 | COc1ccc(C(=O)NCCCOC(C)c2ccccc2)c(OC)c1 (stereo not drawn) [DDD01071935] | 41.6 | -11.10
27 | 2.53 | O=C(NCCCN1CCOCC1)c1ccn(-c2ccc3ccccn23)n1.O=C(O)C(F)(F)F [DDD01085308] | 50.4 | 23.54
28 | 2.5 | COc1ccccc1CN(C)C(=O)CN1CC(n2nc(C)cc2C)C1 [DDD01071519] | 44.4 | -2.12
29 | 2.4 | COc1cc(C)sc1C(=O)NCCNc1ccccc1 [DDD01067535] | 41.9 | 11.25
30 | 2.39 | CC(C)Nc1cc(-c2c[nH]nc2C2CCN(C(=O)C3CCC3)C2)ccn1 (stereo not drawn) [DDD01057307] | 36.2 | 95.83
31 | 2.29 | COc1cccc(CN(C)C(=O)CN2CC(n3nc(C)cc3C)C2)c1 [DDD01080719] | 49.9 | -1.82
32 | 2.28 | Clc1cccc(CNC2CCN(CCc3ccncc3)CC2)c1 [DDD01069722] | 57.5 | 0.53
33 | 2.25 | COc1ccnc(CN2CCCC(CCc3ccc(F)cc3)C2)c1OC (stereo not drawn) [DDD01246654] | 51 | 2.04
34 | 2.2 | Cc1cc(CN2CCc3nc(-c4ccncc4)nc(O)c3CC2)c(C)s1 [DDD01058881] | 77.5 | -7.80
35 | 2.13 | Cc1ccc2[nH]c(-c3cn(C4CCNCC4)nn3)nc2c1C [DDD01246711] | 63.9 | -3.44
36 | 2.03 | CN(CCCOc1ccccc1)C(=O)c1csc(-c2nnc[nH]2)n1 [DDD01061692] | 34.8 | -5.84
37 | 2.03 | CCC(=O)NCC(c1ccc(SC)cc1)N1CCc2sccc2C1 (stereo not drawn) [DDD01071943] | 64.5 | -8.32
38 | 1.95 | Clc1ccc(C2(CNC3=NCCN3)CC2)cc1.I [DDD01067441] | 40.6 | 10.02
39 | 1.9 | CCOCC1CCN(C(=O)Nc2ccc3c(c2)CCCN3C)C1 (stereo not drawn) [DDD01073381] | 31.9 | -10.40
40 | 1.81 | Cc1ccc(CNC2CCN(CCc3ccncc3)CC2)cc1C [DDD01080013] | 77 | 1.32
41 | 1.79 | Cl.Fc1ccc(F)c(CN2CCC(c3cc4ncccc4cn3)CC2)c1 [DDD01058752] | 62.6 | 4.59

Row | IC50 [1] [µM] | Structure (SMILES) | inhibition at 2 µM [1] [%] | %Inh HepG2 @10uM (HepG2 human cells) [%]
42 | 1.75 | O=C(c1ccccc1)C1CCN(Cc2cc3c(cc2O)CCC3)CC1 [DDD01073482] | 48.9 | 33.89
43 | 1.67 | CCOc1ccc(CN2CCCC(c3cc4ncccc4[nH]3)C2)cc1 (stereo not drawn) [DDD01057418] | 91.8 | 6.95
44 | 1.64 | Cl.Fc1cccc(CN2CCC(c3cc4ncccc4cn3)CC2)c1F [DDD01058754] | 33.2 | 4.71
45 | 1.58 | CCOCc1ccc(CNC2=NCCCN2)cc1.I [DDD01079448] | 40.1 | -2.49
46 | 1.56 | CC1CCCCN1C(=O)c1coc(COc2cccc3cnccc23)n1 (stereo not drawn) [DDD01245028] | 66.8 | -6.78
47 | 1.55 | c1ccc(-c2cc(CNCCN3CCCC3)c3nnnn3c2)cc1 [DDD01059599] | 79.4 | -3.47
48 | 1.4 | CCN1CCN(C[C@@H]2CN(c3ncc(Cl)cc3F)C[C@@H]2CO)CC1 [DDD01246828] | 82.5 | -10.90
49 | 1.37 | Cl.NC1CCc2nc(-c3cccnc3)nc(Nc3ccc(F)cc3)c2C1 (stereo not drawn) [DDD01057099] | 68.5 | 3.41
50 | 1.3 | CNc1nc(C)cc(NCc2cc(C)cc3c(C)c(C)[nH]c23)n1 [DDD01244907] | 91.8 | 98.78
51 | 1.29 | CN(C)CCN(C)C(=O)Cn1cccc2cc(-c3ccc(F)cc3)nc1-2 [DDD01059044] | 97 | 4.32
52 | 1.24 | NC(=O)CN1CCC(Nc2ccnc3ccc(Cl)cc23)CC1 [DDD01078433] | 82 | -1.05
53 | 1.16 | CCCn1cc(-c2ccnc(NC3CCc4ccccc4C3)n2)c(C)n1 (stereo not drawn) [DDD01243522] | 31.2 | 19.33
54 | 0.853 | COc1ccc(C)cc1CN1CCC(c2cc3ncccc3cn2)CC1.Cl [DDD01058767] | 97.7 | 105.03
55 | 0.456 | Cc1nn(C)cc1C1=NS(=O)(=O)N(C)C(C(=O)Nc2ccc(Cl)cc2)=C1 [DDD01058696] | 97.9 | 1.32
56 | 0.366 | Cc1nn(C)cc1C1=NS(=O)(=O)N(C)C(C(=O)Nc2ccc(Br)cc2)=C1 [DDD01058697] | 98 | 0.0552
57 | 0.201 | c1cc(-c2n[nH]cc2-c2ccnc(N3CCCC3)n2)ccn1 [DDD01235828] | 46.4 | -2.36

From publication PMC6143625, “A high throughput screen for next-generation leads targeting malaria parasite transmission” (Nature Communications, 2018)
